Experimental data from patent US8729125B2, “Ophthalmic compositions and methods for treating eyes” (Allergan, Inc., priority 2004, dated 2014).
Counter-ions that a name gives are not always drawn. Like-named read-outs stand apart in the source and are kept apart here.

Assays:
[1] = system: phosphorylated c-jun N-terminal kinases (p-JNK1 and p-JNK2); assay: Western blot of phosphorylated JNK1 and JNK2 in primary corneal epithelial cultures under hyperosmolar stress; type: cell-based, human; conditions: 2 mM
[2] = system: JNK; assay: Beadlyte Cell Signaling Assay, phosphorylated:total JNK; type: cell-based, human; conditions: 2 mM, Beadlyte method, FIG. 3
Description: (§1) A series of primary sub-confluent corneal epithelial cultures (grown for 12 to 14 days, about 4−5×10^5 cells/well) were washed three times with […] buffered saline (PBS) and switched to an Earle's Balanced Salt Solution (EBSS, 300 mOsmols/kg) for 24 hours before treatment. The corneal epithelial cells were cultured for 1 hour in an equal volume (2.0 mL/well) of EBSS media or 400 mOsmols/kg media by adding 53 mM NaCl or sucrose, with either L-carnitine inner salt, betaine hydrochloride, erythritol, or xylitol (all at a concentration of 2 mM) that were pre-added 60 minutes before adding NaCl or sucrose. Samples without these osmoprotectants were also prepared and tested.
(§2) The adherent cells were lysed in Beadlyte® Buffer B (included in the Beadlyte® Cell Signaling buffer kit, Upstate Biotechnology, Lake Placid, N.Y.) containing an EDTA-free protease inhibitor cocktail tablet (Roche Applied Science, Indianapolis, Ind.) for 15 minutes. The cell extracts were centrifuged at 12,000×g for 15 minutes at room temperature and the supernatants were stored at −80° C. until they were analyzed by Western blot analysis. The total protein concentrations of the cell extracts were determined using a Micro BCA protein assay kit (Pierce, Rockford, Ill.).
In another series of experiments, the Beadlyte® Cell Signaling Assay was used. This assay is a fluorescent bead-based sandwich immunoassay. Each sample (10 μg/25 μL) was pipetted into a well of a 96-well plate and incubated with 25 μL of diluted 5× beads coupled to phospho-JNK, phospho-ERK, phospho-p38 or total JNK, or total ERK, or total p38 specific capture antibodies overnight. […]
The beads were washed and mixed with biotinylated specific reporter antibodies for phospho-MAPK or total-MAPK, followed by streptavidin-phycoerythrin. The amount of total or phospho-MAPK was then quantified by the Luminex 100™ system (Luminex, Austin, Tex.). Fifty events per bead were read, and the data output obtained from the Bio-Plex Manager software were exported to Microsoft Excel® for further analysis. […]

[3] = system: corneal epithelial cells; assay: Trans-epithelial electrical resistance (TEER) of layered air-lift corneal epithelial cultures exposed to hypertonic fluid; type: cell-based, rabbit; conditions: for Osmoprotective benefit on TEER relative to hypertonic control, in words: 2 mM, 400 mOsmols/kg, 22 hours; for Concentration dependent effect on % TEER relative to the isotonic control: different concentrations, TEER measured 0 to 24 hours, FIG. 6
Excerpt: In this experiment, corneal epithelial cells were isolated from the rabbit eye and grown under conditions so that they differentiate into a layered “air-lift” culture that includes basal, wing, and squamous cells. As they grow and differentiate, these cultures developed tight junctions between cells that provide the basis for a trans-epithelial electrical resistance (TEER) across the cell layers between the apical and basal surfaces. The TEER value is a sensitive measure of cell growth, differentiation and health.
After 5 days in culture during which the layered structure forms, different culture wells were exposed to hypertonic fluid (400 mOsmols/kg) with or without addition of one of 6 candidate compatible solutes at a low concentration (2 mM). The TEER was then measured after 22 hours of exposure. The TEER value was expressed as a percentage of the TEER value obtained from a similar culture under isotonic (300 mOsmol/kg) conditions.
Example 1 is repeated except that different concentrations of each of the candidate materials are used, and the TEER is measured at various times from 0 to 24 hours.
As in Example 1, the TEER variable is represented as % TEER relative to the isotonic control.
Example 4 was repeated except that compositions including combinations of compatible solutes were used. Compositions including only glycerol as a compatible solute were also tested.

[4] = Component compatibility with stabilized chlorine dioxide preservative; type: physicochemical
Description: A composition including betaine and stabilized chlorine dioxide, as a preservative, was tested for component compatibility. […] Thus, betaine is not useful with certain preservatives, such as stabilized chlorine dioxide. However, betaine may advantageously be employed as a compatible solute in ophthalmic compositions which use other preservative systems, or which are free of preservatives, for example, in single or unit-dose applications.

[5] = system: ERK MAP Kinase; assay: Beadlyte Cell Signaling Assay, phospho:total ERK MAP kinase; type: cell-based, human; conditions: 2 mM, Beadlyte method, FIG. 5
Description: as §1, §2
In another series of experiments, the Beadlyte® Cell Signaling Assay was used. This assay is a fluorescent bead-based sandwich immunoassay. […]

Structure (SMILES) | Levels of p-JNK1 and p-JNK2 (Western blot) in 300 mOsmols/kg cultures ([1]; 300 mOsmols/kg EBSS media) | JNK activation (levels of p-JNK1 and p-JNK2, Western blot intensity) compared to 400 mOsmols/kg media alone ([1]; pre-added 60 minutes, 1 hour in 400 mOsmols/kg media) | Amount of phospho-total JNK relative to the hypertonic control [2] | Osmoprotective benefit on TEER relative to hypertonic control, in words [3] | Concentration dependent effect on % TEER relative to the isotonic control [3] | Compatibility with stabilized chlorine dioxide (Purite) preservative in a composition [4] | Compatibility with stabilized chlorine dioxide (Purite) preservative in a composition ([4]; listed as betaine) | Amount of ERK (phospho:total) relative to the hypertonic control [5]
C[N+](C)(C)C[C@H](O)CC(=O)[O-] [Carnitine, L-carnitine inner salt] | less robust effect | definite decrease | reduced | produced the most benefit | dose-related response | – | – | –
C[N+](C)(C)CC(=O)O [Betaine, trimethyl glycine] | – | – | – | – | – | incompatible | not fully compatible | –
OC[C@@H](O)[C@H](O)[C@@H](O)CO [Xylitol] | – | – | reduced | good results | – | – | – | reduced
O[C@H]1[C@H](O)[C@@H](O)[C@H](O)[C@@H](O)[C@H]1O [Myo-Inositol] | – | – | – | good results | – | – | – | –
OC[C@@H](O)[C@@H](O)CO [Erythritol] | – | – | reduced | best results among the polyols tested | dose-related response | – | – | reduced
